# BindingDB's records for doi:10.7270/Q2CV4GM1 (D3R/Abbott, 2015)
# pIC50: −log10 of the molar value. Values joined by “and” are separate entries in the source; they are usually repeats but may differ in a detail not shown here. Identical values can stand only once.
# Molecular target: T1, Tyrosine-protein kinase SYK [355-635] (Homo sapiens, UniProt P43405)
# T1 construct: 355-635
# Assay: SYK assay_HTRF
row,Structure (SMILES),pIC50
1,NS(=O)(=O)c1cccc(Nc2nccc(N(CCCO)c3cccc4[nH]ncc34)n2)c1 [GTC000259A],8.30
2,CN(c1nc(Nc2ccc3nn[nH]c3c2)ncc1F)c1cccc2[nH]ncc12 [GTC000265A],8.25
3,CCN(c1nc(Nc2ccc3nn[nH]c3c2)ncc1F)c1cccc2[nH]ncc12 [GTC000267A],8.20
4,CCN(c1nc(Nc2ccc3c(c2)COC(=O)N3)ncc1F)c1cccc2[nH]ncc12 [GTC000268A],8.17
5,NCCCCCN(c1ccnc(Nc2ccc3[nH]c(=O)[nH]c3c2)n1)c1cccc2[nH]ncc12 [GTC000269A],8.16
6,COCCCN(c1nc(Nc2ccc3c(c2)COC(=O)N3)ncc1F)c1cccc2[nH]ncc12 [GTC000273A],8.17
7,Cn1ncc2ccc(Nc3nccc(N(CCCCO)c4cccc5[nH]ncc45)n3)cc21 [GTC000274A],8.23
8,CN(c1nc(Nc2ccc3cnn(C)c3c2)ncc1F)c1cccc2[nH]ncc12 [GTC000276A],8.22
9,NCCCCN(c1ccnc(Nc2ccc3[nH]c(=O)[nH]c3c2)n1)c1cccc2[nH]ncc12 [GTC000280A],8.13
10,NC(=O)c1cccc(Nc2nccc(N(CCO)c3cccc4[nH]ncc34)n2)c1 [GTC000281A],8.14
11,CCN(c1nc(Nc2ccc3c(c2)[nH]c(=O)n3C)ncc1F)c1cccc2[nH]ncc12 [GTC000283A],8.09
12,NS(=O)(=O)c1cccc(Nc2ncc(F)c(N(CCCO)c3cccc4[nH]ncc34)n2)c1 [GTC000284A],8.06
13,COCCN(c1ccnc(Nc2ccc3c(c2)S(=O)(=O)NC3)n1)c1cccc2[nH]ncc12 [GTC000285A],8.08
14,CCN(c1nc(Nc2ccc3c(c2)S(=O)(=O)N(C)C3)ncc1F)c1cccc2[nH]ncc12 [GTC000289A],7.86 and 8.27 and 7.79
15,CCN(CC)CCCN(c1ccnc(Nc2ccc3c(c2)S(=O)(=O)NC3)n1)c1cccc2[nH]ncc12 [GTC000291A],7.94 and 8.14
16,CCN(c1nc(Nc2ccc3c(c2)C(C)(C)C(=O)N3)ncc1F)c1cccc2[nH]ncc12 [GTC000302A],7.88
17,O=S1(=O)NCc2ccc(Nc3nccc(N(C[C@@H](O)CO)c4cccc5[nH]ncc45)n3)cc21 [GTC000304A],7.87
18,CCN(c1nc(Nc2ccc3c(cnn3C(C)C)c2)ncc1F)c1cccc2[nH]ncc12 [GTC000305A],7.53 and 8.15

row,Structure (SMILES),pIC50
1,CCN(c1nc(Nc2cccc(-c3cnco3)c2)ncc1F)c1cccc2[nH]ncc12 [GTC000306A],8.04 and 7.78 and 7.58
2,CCN(c1nc(Nc2ccc3c(c2)S(=O)(=O)N(CC)C3)ncc1F)c1cccc2[nH]ncc12 [GTC000307A],7.79 and 7.85
3,CS(=O)(=O)NCCCCCN(c1ccnc(Nc2ccc3[nH]c(=O)[nH]c3c2)n1)c1cccc2[nH]ncc12 [GTC000308A],7.75 and 7.81
4,CS(=O)(=O)c1cccc(Nc2nccc(N(CCO)c3cccc4[nH]ncc34)n2)c1 [GTC000311A],7.82
5,CCN(c1nc(Nc2ccc3[nH]c(=O)n(C)c3c2)ncc1F)c1cccc2[nH]ncc12 [GTC000321A],7.67
6,COCCN(c1ccnc(Nc2ccc3nn[nH]c3c2)n1)c1cccc2[nH]ncc12 [GTC000322A],7.69
7,COCCN(c1ccnc(Nc2cccc(-c3ocnc3C)c2)n1)c1cccc2[nH]ncc12 [GTC000323A],7.67
8,CCN(c1nc(Nc2ccc3ncsc3c2)ncc1F)c1cccc2[nH]ncc12 [GTC000325A],8.00 and 7.25 and 7.53
9,CCN(c1nc(Nc2ccc3c(c2)C(=O)NC3)ncc1F)c1cccc2[nH]ncc12 [GTC000326A],7.87 and 7.76 and 7.18
10,CCN(CC)CCCN(c1ccnc(Nc2cccc(S(N)(=O)=O)c2)n1)c1cccc2[nH]ncc12 [GTC000329A],7.63 and 7.90 and 7.25 and 7.60
11,CCN(c1nc(Nc2ccc3c(c2)S(=O)(=O)N(CC2CC2)C3)ncc1F)c1cccc2[nH]ncc12 [GTC000330A],7.44 and 7.71
12,CCN(c1nc(Nc2cccc(N3CCN(C)CC3)c2)ncc1F)c1cccc2[nH]ncc12 [GTC000331A],7.62
13,CCN(c1nc(Nc2ccc(CCO)cc2)ncc1F)c1cccc2[nH]ncc12 [GTC000333A],7.56
14,CCN(c1nc(Nc2ccc3cnn(C)c3c2)ncc1Cl)c1cccc2[nH]ncc12 [GTC000334A],7.62
15,COCCCN(c1nc(Nc2ccc3nn[nH]c3c2)ncc1F)c1cccc2[nH]ncc12 [GTC000336A],7.59
16,CN(c1nc(Nc2cccc(S(N)(=O)=O)c2)ncc1F)c1cccc2[nH]ncc12 [GTC000337A],7.64
17,CS(=O)(=O)c1cccc(Nc2nccc(N(CCCO)c3cccc4[nH]ncc34)n2)c1 [GTC000338A],7.94 and 7.40 and 7.07

# Continued, values first:
row,pIC50,Structure (SMILES)
1,8.30,COCCCN(c1ccnc(Nc2ccc3nn[nH]c3c2)n1)c1cccc2[nH]ncc12 [GTC000257A]
2,8.30,O=C1Nc2ccc(Nc3nccc(N(CCO)c4cccc5[nH]ncc45)n3)cc2CO1 [GTC000258A]
3,8.26,CCN(c1nc(Nc2ccc(C(N)=O)cc2)ncc1F)c1cccc2[nH]ncc12 [GTC000260A]
4,8.30,CCN(c1nc(Nc2ccc(S(N)(=O)=O)cc2)ncc1F)c1cccc2[nH]ncc12 [GTC000261A]
5,8.29,O=c1[nH]c2ccc(Nc3ncc(F)c(N(CCCO)c4cccc5[nH]ncc45)n3)cc2[nH]1 [GTC000262A]
6,8.31,COCCCN(c1nc(Nc2ccc3[nH]c(=O)[nH]c3c2)ncc1F)c1cccc2[nH]ncc12 [GTC000263A]
7,8.28,CN(c1nc(Nc2ccc3[nH]c(=O)[nH]c3c2)ncc1F)c1cccc2[nH]ncc12 [GTC000264A]
8,8.16,Cn1ncc2ccc(Nc3nccc(N(CCCO)c4cccc5[nH]ncc45)n3)cc21 [GTC000270A]
9,8.18,CCN(c1nc(Nc2ccc(C(=O)NC)cc2)ncc1F)c1cccc2[nH]ncc12 [GTC000271A]
10,8.16,CCN(c1nc(Nc2ccc3c(c2)CC(=O)N3)ncc1F)c1cccc2[nH]ncc12 [GTC000272A]
11,8.22,OCCCCN(c1ccnc(Nc2ccc3nn[nH]c3c2)n1)c1cccc2[nH]ncc12 [GTC000275A]
12,8.14 and 8.12,CCN(c1nc(Nc2ccc3c(c2)S(=O)(=O)CC3)ncc1F)c1cccc2[nH]ncc12 [GTC000277A]
13,8.10,O=S1(=O)CCc2ccc(Nc3ncc(F)c(N(CC4CCCO4)c4cccc5[nH]ncc45)n3)cc21 (stereo unspecified) [GTC000278A]
14,8.12,COCCCN(c1nc(Nc2ccc3c(C)nn(CCCO)c3c2)ncc1F)c1cccc2[nH]ncc12 [GTC000279A]
15,8.10,CCN(c1nc(Nc2cccc(O)c2)ncc1F)c1cccc2[nH]ncc12 [GTC000282A]
16,8.12,Cc1ncoc1-c1cccc(Nc2nccc(N(CCCCO)c3cccc4[nH]ncc34)n2)c1 [GTC000286A]
17,8.09,Cn1ncc2cc(Nc3nccc(N(CCCCO)c4cccc5[nH]ncc45)n3)ccc21 [GTC000287A]
18,7.70 and 8.27,CS(=O)(=O)NCCCCN(c1ccnc(Nc2ccc3[nH]c(=O)[nH]c3c2)n1)c1cccc2[nH]ncc12 [GTC000288A]
19,8.17 and 7.90,CCN(c1nc(Nc2ccc3[nH]c(=O)[nH]c3c2)ncc1Cl)c1cccc2[nH]ncc12 [GTC000290A]
20,7.97,O=c1[nH]c2ccc(Nc3nccc(N(CC4CCNCC4)c4cccc5[nH]ncc45)n3)cc2[nH]1 [GTC000292A]
21,8.03,NCCCN(c1ccnc(Nc2ccc3[nH]c(=O)[nH]c3c2)n1)c1cccc2[nH]ncc12 [GTC000293A]
22,7.99,COCCCN(c1nc(Nc2ccc3c(cnn3C)c2)ncc1F)c1cccc2[nH]ncc12 [GTC000294A]
23,8.02,OCCCN(c1nc(Nc2ccc3nn[nH]c3c2)ncc1F)c1cccc2[nH]ncc12 [GTC000295A]

row,pIC50,Structure (SMILES)
1,8.30 and 7.60 and 7.67,COC(=O)CCCCN(c1ccnc(Nc2ccc3c(c2)S(=O)(=O)NC3)n1)c1cccc2[nH]ncc12 [GTC000296A]
2,8.16 and 7.86 and 7.88,COC(=O)CCCN(c1ccnc(Nc2ccc3c(c2)S(=O)(=O)NC3)n1)c1cccc2[nH]ncc12 [GTC000297A]
3,7.97 and 7.81 and 7.82,COCCCN(c1nc(Nc2ccc3cnn(C)c3c2)ncc1F)c1cccc2[nH]ncc12 [GTC000298A]
4,7.86,CCN(c1nc(Nc2ccc3cnn(CCCCO)c3c2)ncc1F)c1cccc2[nH]ncc12 [GTC000299A]
5,7.95,CCN(c1nc(Nc2cccc(S(C)(=O)=O)c2)ncc1F)c1cccc2[nH]ncc12 [GTC000300A]
6,7.92,COCCCN(c1nc(Nc2cccc(S(N)(=O)=O)c2)ncc1F)c1cccc2[nH]ncc12 [GTC000301A]
7,7.94,CN(c1nc(Nc2ccc3c(cnn3C)c2)ncc1F)c1cccc2[nH]ncc12 [GTC000303A]
8,7.75,NC(=O)c1cccc(Nc2nccc(N(CCCO)c3cccc4[nH]ncc34)n2)c1 [GTC000309A]
9,7.79,CC(=O)NCCCCCN(c1ccnc(Nc2ccc3[nH]c(=O)[nH]c3c2)n1)c1cccc2[nH]ncc12 [GTC000310A]
10,7.79,CCNC(=O)c1ccc(Nc2ncc(F)c(N(CC)c3cccc4[nH]ncc34)n2)cc1 [GTC000312A]
11,7.78,COCCN(c1ccnc(Nc2ccc3cnn(C)c3c2)n1)c1cccc2[nH]ncc12 [GTC000313A]
12,7.80,O=S1(=O)NCc2ccc(Nc3nccc(N(CC(F)(F)F)c4cccc5[nH]ncc45)n3)cc21 [GTC000314A]
13,7.79,COCCCN(c1nc(Nc2cccc(-c3ocnc3C)c2)ncc1F)c1cccc2[nH]ncc12 [GTC000315A]
14,7.79,Cc1ncoc1-c1cccc(Nc2ncc(F)c(N(C)c3cccc4[nH]ncc34)n2)c1 [GTC000316A]
15,8.00 and 7.61 and 7.38,CCN(c1nc(Nc2cccc(-c3cnco3)c2)ncc1Cl)c1cccc2[nH]ncc12 [GTC000317A]
16,7.87 and 7.45,CCN(c1nc(Nc2cccc(C(N)=O)c2)ncc1F)c1cccc2[nH]ncc12 [GTC000318A]
17,7.74,CCN(c1nc(Nc2ccc3c(c2)CCN3C(C)=O)ncc1F)c1cccc2[nH]ncc12 [GTC000319A]
18,7.67,CCN(c1nc(Nc2cccc(-c3noc(C)n3)c2)ncc1F)c1cccc2[nH]ncc12 [GTC000320A]
19,7.89 and 7.21,COCCCN(c1ccnc(Nc2cccc(C(N)=O)c2)n1)c1cccc2[nH]ncc12 [GTC000324A]
20,7.92 and 7.67 and 7.36,CCN(c1nc(Nc2ccc3c(c2)S(=O)(=O)NC3)ncc1Br)c1cccc2[nH]ncc12 [GTC000327A]
21,7.82 and 7.53 and 7.30 and 7.91,CCN(c1nc(Nc2ccc3cn[nH]c3c2)ncc1Cl)c1cccc2[nH]ncc12 [GTC000328A]
22,7.62,CCN(CC)CCCN(c1ccnc(Nc2ccc3c(c2)C(=O)NS3(=O)=O)n1)c1cccc2[nH]ncc12 [GTC000332A]
23,7.65,COCCN(c1ccnc(Nc2cccc(S(N)(=O)=O)c2)n1)c1cccc2[nH]ncc12 [GTC000335A]
